According to PMC9237828, “Chemically Tuning Resveratrol for the Effective Killing of Gram-Positive Pathogens” (Journal of Natural Products, 2022):
In brackets after ≈: the same amount, converted by molar mass.

Key:
[1] = system: E. faecalis LMG08222; assay: microbe, parasite or virus in culture; assay type: cell-based, Enterococcus faecalis; conditions: Enterococcus faecalis, LMG08222, 20 h, read-out: Minimal Inhibition Concentration (MIC) E. faecalis LMG08222
[2] = system: E. faecalis V583; assay: microbe, parasite or virus in culture; assay type: cell-based, Enterococcus faecalis; conditions: Enterococcus faecalis, V583, 20 h, read-out: Minimal Inhibition Concentration (MIC) E. faecalis V583
[3] = system: B. cereus ATCC10987; assay: microbe, parasite or virus in culture; assay type: cell-based, Bacillus cereus; conditions: Bacillus cereus, ATCC10987, 20 h, read-out: Minimal Inhibition Concentration (MIC) B. cereus ATCC10987
[4] = system: B. cereus ATCC14579; assay: microbe, parasite or virus in culture; assay type: cell-based, Bacillus cereus; conditions: Bacillus cereus, ATCC14579, 20 h, read-out: Minimal Inhibition Concentration (MIC) B. cereus ATCC14579
[5] = system: panel of aerobic and anaerobic Gram-positive bacteria; assay: organism not typed; assay type: cell-based
[6] = system: E. faecium LMG16003; assay: Combined action with antibiotics (MIC reduction, checkerboard FICI); assay type: cell-based; conditions: for FICI, antibiotic with 15 / FICI, antibiotic with 17: fractional inhibitory concentration index, EUCAST, * means relevant FICI values
[7] = system: S. aureus LMG8224; assay: as above; assay type: cell-based, Staphylococcus aureus; conditions: for MIC of antibiotic in combination with RES: RES at 4 μM; for FICI, antibiotic with 17 / FICI, antibiotic with 15: fractional inhibitory concentration index, EUCAST, * means relevant FICI values
[8] = system: C. perfringens CECT376; assay: microbe, parasite or virus in culture; assay type: cell-based; conditions: Clostridium perfringens, CECT376, 24 h, read-out: Minimal Inhibition Concentration (MIC) C. perfringens CECT376
[9] = system: C. difficile CECT531; assay: microbe, parasite or virus in culture; assay type: cell-based, Clostridioides difficile; conditions: Clostridioides difficile, CECT531, 24 h, read-out: Minimal Inhibition Concentration (MIC) C. difficile CECT531
[10] = system: E. faecium LMG16003; assay: microbe, parasite or virus in culture; assay type: cell-based; conditions: Enterococcus faecium, LMG16003, 20 h, read-out: Minimal Inhibition Concentration (MIC) E. faecium LMG16003
[11] = system: S.aureus LMG8224; assay: microbe, parasite or virus in culture; assay type: cell-based, Staphylococcus aureus; conditions: Staphylococcus aureus, LMG8224, 20 h, read-out: Minimal Inhibition Concentration (MIC) S.aureus LMG8224

CC(C)[Si](Oc1ccc(/C=C/c2cc(O[Si](C(C)C)(C(C)C)C(C)C)cc(OS(=O)(=O)O)c2)cc1)(C(C)C)C(C)C [compound 36, 3-Sulfate-4′,5-diisopropylsilyl resveratrol]
MIC [1]: 128 µM (≈ 79.5 µg/mL)
MIC [2]: 128 µM (≈ 79.5 µg/mL)

CCOc1cc(O)cc(/C=C/c2ccc(O)cc2)c1 [compound 10]
MIC [3]: 128 µM (≈ 32.8 µg/mL)
MIC [4]: 128 µM (≈ 32.8 µg/mL)

CC[Si](CC)(CC)Oc1cc(/C=C/c2ccc(O)cc2)cc(O[Si](CC)(CC)CC)c1 [compound 21]
antibacterial activity against the Gram-positive panel [5]: not active or displayed very low antibacterial activity

CC(C)[Si](Oc1ccc(/C=C/c2cc(O[Si](C(C)C)(C(C)C)C(C)C)cc(O[Si](C(C)C)(C(C)C)C(C)C)c2)cc1)(C(C)C)C(C)C [compound 22]
antibacterial activity against the Gram-positive panel [5]: not active or displayed very low antibacterial activity

[H]/N=C(/N)N[C@H]1[C@H](O)[C@@H](O)[C@H](O[C@@H]2O[C@@H](C)[C@](O)(C=O)[C@H]2O[C@@H]2O[C@@H](CO)[C@H](O)[C@@H](O)[C@@H]2NC)[C@@H](N/C(N)=N\[H])[C@@H]1O [Str, streptomycin]
MIC of antibiotic alone (Ab) [6]: 32 ± 0 µM
MIC of antibiotic in combination with 17 ([7]; 17 at 2 μM): 8 ± 0 µM
MIC of antibiotic in combination with 17 ([7]; 17 at 4 μM): 4 ± 0 µM
MIC of antibiotic in combination with RES [7]: 16 ± 0 µM
MIC of antibiotic alone (Ab) [7]: 16 ± 0 µM
FICI, antibiotic with 17 [7]: 0.75

CN[C@H](CC(C)C)C(=O)N[C@H]1C(=O)N[C@@H](CC(N)=O)C(=O)N[C@H]2C(=O)N[C@H]3C(=O)N[C@H](C(=O)N[C@H](C(=O)O)c4cc(O)cc(O)c4-c4cc3ccc4O)[C@H](O)c3ccc(c(Cl)c3)Oc3cc2cc(c3O[C@@H]2O[C@H](CO)[C@@H](O)[C@H](O)[C@H]2O[C@H]2C[C@](C)(N)[C@H](O)[C@H](C)O2)Oc2ccc(cc2Cl)[C@H]1O [vancomycin, reference compound]
MIC [8]: 0.18 ± 0.06 µM (≈ 0.261 µg/mL)
MIC [3]: 6 ± 2 µM (≈ 8.7 µg/mL)
MIC [9]: 1.25 ± 0.75 µM (≈ 1.81 µg/mL)
MIC [2]: 9.8 ± 2.7 µM (≈ 14.2 µg/mL)
MIC [10]: > 32 µM
MIC [11]: 10.7 ± 2.7 µM (≈ 15.5 µg/mL)

bacitracin
MIC of antibiotic in combination with 15 ([6]; 15 at 4 μM): 16 ± 0 µM
MIC of antibiotic in combination with 15 ([6]; 15 at 8 μM): 0.3 ± 0.2 µM
MIC of antibiotic in combination with 17 ([6]; 17 at 2 μM): 32 ± 0 µM
MIC of antibiotic in combination with 17 ([6]; 17 at 4 μM): 16 ± 0 µM
MIC of antibiotic in combination with RES ([6]; RES at 8 μM): >32 µM
MIC of antibiotic alone (Ab) [6]: >32 µM
FICI, antibiotic with 15 [6]: 0.27*
FICI, antibiotic with 17 [6]: 0.75*
MIC of antibiotic in combination with 15 ([7]; 15 at 2 μM): 26.6 ± 3.7 µM
MIC of antibiotic in combination with 15 ([7]; 15 at 4 μM): 4 ± 0 µM
MIC of antibiotic in combination with 17 ([7]; 17 at 4 μM): 6.6 ± 0.9 µM
MIC of antibiotic in combination with RES [7]: >32 µM
MIC of antibiotic alone (Ab) [7]: >32 µM
FICI, antibiotic with 15 [7]: 0.31*
FICI, antibiotic with 17 [7]: 0.41*

CNC(C)C1CCC(N)C(OC2C(N)CC(N)C(OC3OCC(C)(O)C(NC)C3O)C2O)O1 (stereo not drawn) [gentamicin]
MIC [8]: > 32 µM
MIC of antibiotic in combination with 15 ([6]; 15 at 4 μM): 13.3 ± 1.8 µM
MIC of antibiotic in combination with 15 ([6]; 15 at 8 μM): 5.3 ± 0.9 µM
MIC of antibiotic in combination with 17 ([6]; 17 at 2 μM): 13.3 ± 1.8 µM
MIC of antibiotic in combination with 17 ([6]; 17 at 4 μM): 6.6 ± 0.9 µM
FICI, antibiotic with 15 [6]: 0.41
FICI, antibiotic with 17 [6]: 0.66
MIC [3]: 4 µM (≈ 1.91 µg/mL)
MIC [9]: > 32 µM
MIC [2]: > 32 µM
MIC of antibiotic in combination with 15 ([7]; 15 at 2 μM): 0.5 ± 0 µM
MIC of antibiotic in combination with 15 ([7]; 15 at 4 μM): 0.1 ± 0 µM
MIC of antibiotic in combination with 17 ([7]; 17 at 2 μM): 0.3 ± 0 µM
MIC of antibiotic in combination with 17 ([7]; 17 at 4 μM): 0.1 ± 0 µM
MIC of antibiotic in combination with RES [7]: 1 ± 0 µM
MIC of antibiotic alone (Ab) [7]: 1 ± 0 µM
FICI, antibiotic with 15 [7]: 0.37
FICI, antibiotic with 17 [7]: 0.58
MIC [10]: 12.6 ± 1.61 µM (≈ 6 µg/mL)
MIC [11]: 1 ± 0.35 µM (≈ 0.478 µg/mL)

COc1cc(O)cc(/C=C/c2ccc(O[C@H]3O[C@@H](C(=O)O)[C@H](O)[C@@H](O)[C@@H]3O)cc2)c1 [compound 29]
antibacterial activity against the Gram-positive panel [5]: did not show antibiotic activity
